Literature values in patent publication US20180256731A1, “NOVEL INSULIN ANALOG AND USE THEREOF” (HANMI PHARM. CO., LTD, priority 2013, published 2018).

Settings: commercially available long-acting insulin

| Substance | lasting for (duration) [h] |
| --- | --- |
| insulin detemir | 18 to 22 |
| insulin glargine | 20 to 22 |
